Laboratory results published in patent US8906928B2, “Substituted pyrazolo-pyrrolo-pyridine-dione compounds” (ArQule, Inc., priority 2009, dated 2014).

Experiments:
MDA-MB = experiment: MTS assay (cell growth inhibition), MDA-MB; format: cell-based; details: MDA-MB cells, 72 hours incubation with test compound; concentration not given
Outline: (§1)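 First, seed 3000 cells per well in low-serum (1% FBS) DMEM and culture 18 h. Next, add compounds prepared at 300× in DMSO and diluted 1:40 in DMEM; incubate 72 h. Finally, add MTS/PMS for 4 h and measure absorbance at 492 nm.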

NCI-H1299 = experiment: MTS assay (cell growth inhibition), NCI-H1299; format: cell-based; details: NCI-H1299 cells, 72 hours incubation with test compound; concentration not given
Outline: as §1

PC-3 = experiment: MTS assay (cell growth inhibition), PC-3; format: cell-based; details: PC-3 cells, 72 hours incubation with test compound; concentration not given
Outline: as §1

DLD-1 = experiment: MTS assay (cell growth inhibition), DLD-1; format: cell-based; details: DLD-1 cells, 72 hours incubation with test compound; concentration not given
Outline: as §1

Kato III = experiment: MTS assay (cell growth inhibition), Kato III; format: cell-based; details: Kato III cells, 72 hours incubation with test compound; concentration not given
Outline: as §1

PACA-2 = experiment: MTS assay (cell growth inhibition), PACA-2; format: cell-based; details: PACA-2 cells, 72 hours incubation with test compound; concentration not given
Outline: as §1

Compound | melting point | MTS CELL KILL DATA (% INHIBITION) MDA-MB (MDA-MB) | MTS CELL KILL DATA (% INHIBITION) NCI-H1299 (NCI-H1299) | MTS CELL KILL DATA (% INHIBITION) PC-3 (PC-3) | MTS CELL KILL DATA (% INHIBITION) DLD-1 (DLD-1) | MTS CELL KILL DATA (% INHIBITION) Kato III (Kato III) | MTS CELL KILL DATA (% INHIBITION) PACA-2 (PACA-2)
O=C1c2cnc3[nH]ncc3c2C(=O)N1Cc1ccccc1-c1cccc(F)c1F [Example 141, 7-[(2′,3′-difluorobiphenyl-2-yl)methyl]pyrazolo[3,4-b]pyrrolo[3,4-d]pyridine-6,8(3H,7H)-dione] | 93 to 100 °C |  |  |  |  |  | 
N#Cc1ccccc1CN1C(=O)c2cnc3[nH]ncc3c2C1=O [Example 108, 2-[(6,8-dioxo-6,8-dihydropyrazolo[3,4-b]pyrrolo[3,4-d]pyridin-7(3H)-yl)methyl]benzonitrile] | 285 to 287 °C |  |  |  |  |  | 
Cc1ccc(-c2ccccc2CN2C(=O)c3cnc4[nH]ncc4c3C2=O)cc1F [Example 146, 7-[(3′-fluoro-4′-methylbiphenyl-2-yl)methyl]pyrazolo[3,4-b]pyrrolo[3,4-d]pyridine-6,8(3H,7H)-dione] | 193 to 198 °C | C (C = <50% INHIBITION) | C (C = <50% INHIBITION) | C (C = <50% INHIBITION) | C (C = <50% INHIBITION) | C (C = <50% INHIBITION) | C (C = <50% INHIBITION)
O=C1c2cnc3[nH]ncc3c2C(=O)N1CCc1ccccc1 [Example 2, 7-(2-phenylethyl)pyrazolo[3,4-b]pyrrolo[3,4-d]pyridine-6,8(3H,7H)-dione] | 237 to 239 °C | A (A = 80-100% INHIBITION) | A (A = 80-100% INHIBITION) | A (A = 80-100% INHIBITION) | A (A = 80-100% INHIBITION) | A (A = 80-100% INHIBITION) | A (A = 80-100% INHIBITION)
CC(C)(C)OC(=O)N1CCC(CN2C(=O)c3cnc4[nH]ncc4c3C2=O)CC1 [Example 140, tert-butyl 4-[(6,8-dioxo-6,8-dihydropyrazolo[3,4-b]pyrrolo[3,4-d]pyridin-7(3H)-yl)methyl]piperidine-1-carboxylate] | 134 to 137 °C | A (A = 80-100% INHIBITION) | C (C = <50% INHIBITION) | A (A = 80-100% INHIBITION) | C (C = <50% INHIBITION) | C (C = <50% INHIBITION) | A (A = 80-100% INHIBITION)
CC(c1ccccc1-c1ccccc1)N1C(=O)c2cnc3[nH]ncc3c2C1=O (stereo not drawn) [Example 144, 7-(1-biphenyl-2-ylethyl)pyrazolo[3,4-b]pyrrolo[3,4-d]pyridine-6,8(3H,7H)-dione] | 161 to 163 °C |  |  |  |  |  | 
O=C1c2cnc3[nH]ncc3c2C(=O)N1CC1CCNCC1 [Example 57, 7-(piperidin-4-ylmethyl)pyrazolo[3,4-b]pyrrolo[3,4-d]pyridine-6,8(3H,7H)-dione] | > 300 °C |  |  |  |  |  | 
O=C1c2cnc3[nH]ncc3c2C(=O)N1CCC1CCNCC1 [Example 70, 7-(2-piperidin-4-ylethyl)pyrazolo[3,4-b]pyrrolo[3,4-d]pyridine-6,8(3H,7H)-dione] | > 300 °C |  |  |  |  |  | 
N#Cc1ccc(CN2C(=O)c3cnc4[nH]ncc4c3C2=O)cc1 [Example 41, 4-[(6,8-dioxo-6,8-dihydropyrazolo[3,4-b]pyrrolo[3,4-d]pyridin-7(3H)-yl)methyl]benzonitrile] | 293 to 295 °C |  |  |  |  |  | 
O=C1c2cnc3[nH]nc(-c4ccccc4)c3c2C(=O)N1Cc1c(F)cccc1Cl [Example 169, 7-(2-chloro-6-fluorobenzyl)-1-phenylpyrazolo[3,4-b]pyrrolo[3,4-d]pyridine-6,8(3H,7H)-dione] | 224 to 228 °C |  |  |  |  |  | 
O=C1c2cnc3[nH]ncc3c2C(=O)N1Cc1ccccc1-c1ccc(F)cc1F [Example 145, 7-[(2′,4′-difluorobiphenyl-2-yl)methyl]pyrazolo[3,4-b]pyrrolo[3,4-d]pyridine-6,8(3H,7H)-dione] | 199 to 200 °C |  |  |  |  |  | 
N#Cc1cccc(CN2C(=O)c3cnc4[nH]nc(Br)c4c3C2=O)c1 [Example 142, 3-[(1-bromo-6,8-dioxo-6,8-dihydropyrazolo[3,4-b]pyrrolo[3,4-d]pyridin-7(3H)-yl)methyl]benzonitrile] | 283 to 285 °C | B (B = 50-79% INHIBITION) | C (C = <50% INHIBITION) | A (A = 80-100% INHIBITION) | C (C = <50% INHIBITION) | C (C = <50% INHIBITION) | C (C = <50% INHIBITION)
COc1ccc(OC)c(-c2ccccc2CN2C(=O)c3cnc4[nH]ncc4c3C2=O)c1 [Example 143, 7-[(2′,5′-dimethoxybiphenyl-2-yl)methyl]pyrazolo[3,4-b]pyrrolo[3,4-d]pyridine-6,8(3H,7H)-done] | 208 to 211 °C | A (A = 80-100% INHIBITION) | C (C = <50% INHIBITION) | A (A = 80-100% INHIBITION) | C (C = <50% INHIBITION) | C (C = <50% INHIBITION) | C (C = <50% INHIBITION)
O=C1c2cnc3[nH]ncc3c2C(=O)N1CCOc1ccccc1Cl [Example 25, 7-[2-(2-chlorophenoxy)ethyl]pyrazolo[3,4-b]pyrrolo[3,4-d]pyridine-6,8(3H,7H)-dione] |  | A (A = 80-100% INHIBITION) | C (C = <50% INHIBITION) | A (A = 80-100% INHIBITION) | C (C = <50% INHIBITION) | C (C = <50% INHIBITION) | C (C = <50% INHIBITION)
O=C1c2cnc3[nH]ncc3c2C(=O)N1CC1=Cc2ccccc2S1(=O)=O [Example 119, 7-[(1,1-dioxido-1-benzothien-2-yl)methyl]pyrazolo[3,4-b]pyrrolo[3,4-d]pyridine-6,8(3H,7H)-dione] |  | B (B = 50-79% INHIBITION) | C (C = <50% INHIBITION) | C (C = <50% INHIBITION) | C (C = <50% INHIBITION) | C (C = <50% INHIBITION) | C (C = <50% INHIBITION)
O=C1NC(=O)c2c1cnc1[nH]ncc21 [Example 1, pyrazolo[3,4-b]pyrrolo[3,4-d]pyridine-6,8(3H,7H)-dione] | 285 to 300 °C |  |  |  |  |  | 
COc1cccc(-c2ccccc2CN2C(=O)c3cnc4[nH]ncc4c3C2=O)c1 [Example 147, 7-[(3′-methoxybiphenyl-2-yl)methyl]pyrazolo[3,4-b]pyrrolo[3,4-d]pyridine-6,8(3H,7H)-dione] | 99 to 100 °C |  |  |  |  |  | 
O=C1c2cnc3[nH]ncc3c2C(=O)N1Cc1c(F)ccc(F)c1Cl [Example 48, 7-(2-chloro-3,6-difluorobenzyl)pyrazolo[3,4-b]pyrrolo[3,4-d]pyridine-6,8(3H,7H)-dione] |  | A (A = 80-100% INHIBITION) | C (C = <50% INHIBITION) | C (C = <50% INHIBITION) | C (C = <50% INHIBITION) | B (B = 50-79% INHIBITION) | B (B = 50-79% INHIBITION)
O=C1c2cnc3[nH]ncc3c2C(=O)N1Cc1c(F)ccc(Cl)c1F [Example 34, 7-(3-chloro-2,6-difluorobenzyl)pyrazolo[3,4-b]pyrrolo[3,4-d]pyridine-6,8(3H,7H)-dione] |  | A (A = 80-100% INHIBITION) | A (A = 80-100% INHIBITION) | A (A = 80-100% INHIBITION) | A (A = 80-100% INHIBITION) | A (A = 80-100% INHIBITION) | A (A = 80-100% INHIBITION)
